From patent US20240384268A1, “Oligonucleotides” (Hudson Institute of Medical Research, priority 2021, published 2024)
In the oligonucleotide strings, read from the 5' end, every base follows the letter of its sugar. An asterisk marks phosphorothioate; unmarked linkages are phosphodiester. Other units and linkages are bracketed, terminal groups are in braces. A string of capitals states the bases alone. m = 2'-O-methyl

Target: T1, TLR8 (Homo sapiens, UniProt Q9NR97)
T1 sequence (Q9NR97 27-1041): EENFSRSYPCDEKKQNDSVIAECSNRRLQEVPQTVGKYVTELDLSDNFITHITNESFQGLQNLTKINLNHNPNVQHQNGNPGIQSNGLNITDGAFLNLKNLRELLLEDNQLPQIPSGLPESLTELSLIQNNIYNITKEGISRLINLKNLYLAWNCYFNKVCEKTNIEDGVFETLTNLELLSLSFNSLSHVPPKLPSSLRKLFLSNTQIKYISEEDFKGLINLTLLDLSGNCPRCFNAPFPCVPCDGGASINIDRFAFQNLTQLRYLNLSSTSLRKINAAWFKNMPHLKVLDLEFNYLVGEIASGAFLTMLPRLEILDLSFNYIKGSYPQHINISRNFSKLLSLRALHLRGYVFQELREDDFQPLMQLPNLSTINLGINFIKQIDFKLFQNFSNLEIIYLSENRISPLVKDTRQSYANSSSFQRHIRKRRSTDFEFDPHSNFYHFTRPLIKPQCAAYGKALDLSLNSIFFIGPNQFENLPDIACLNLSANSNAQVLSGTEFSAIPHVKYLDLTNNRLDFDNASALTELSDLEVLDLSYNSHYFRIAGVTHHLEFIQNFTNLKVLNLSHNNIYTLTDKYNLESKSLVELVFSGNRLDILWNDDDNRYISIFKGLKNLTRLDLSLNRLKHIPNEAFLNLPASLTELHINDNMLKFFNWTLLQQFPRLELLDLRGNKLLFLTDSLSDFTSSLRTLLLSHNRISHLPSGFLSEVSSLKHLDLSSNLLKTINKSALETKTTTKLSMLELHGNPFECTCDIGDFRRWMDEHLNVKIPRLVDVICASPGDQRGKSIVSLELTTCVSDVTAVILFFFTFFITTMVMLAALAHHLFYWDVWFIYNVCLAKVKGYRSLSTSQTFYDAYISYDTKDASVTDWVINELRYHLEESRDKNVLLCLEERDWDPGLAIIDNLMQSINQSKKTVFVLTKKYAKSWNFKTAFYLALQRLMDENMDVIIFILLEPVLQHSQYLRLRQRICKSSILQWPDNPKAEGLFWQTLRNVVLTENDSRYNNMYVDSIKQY
Test: HEK-TLR8 NF-κB-luciferase reporter, R848 or Motolimod stimulation (potentiation or inhibition)
Assay type: cell-based
Parameters: expressed in transfected cells; host or cells: 293XLhTLR8 (HEK293)
Settings: 3mer 2'OMe ASO at 5 uM; HEK-TLR8; value relative to Ligand only = 1.000, NT = 0.000
Method: (§1) In such examples, potentiation of TLR8 activity can be identified by observation of an overall increased TLR8 response of the cell population, or a higher proportion of cells having TLR8-positive activity as compared to a negative control condition in which cells are treated with TLR8 agonist in the absence of the oligonucleotide (or in the presence of an appropriate control non-potentiating agent). In one example, 293XLhTLR8 (referred to as HEK-TLR8) cells are transfected with pNF-κB-Luc4 reporter, incubated with an oligonucleotide, and then stimulated with R848. TLR8 activity can be determined by a luciferase assay, which measures activated NF-κB by luminescence. TLR8 activity can also be analysed by measuring cytokine levels, for example by ELISA.
as §1, with “inhibition” for “potentiation”, “decreased” for “increased”, “lower” for “higher”, “positive” for “negative”, “inhibitory” for “non-potentiating”
For cGAS stimulations, cells were treated for indicated duration with ASOs, prior to transfection with ISD70 (human cells) or ISD45 (mouse cells) (the ASOs were not washed off prior to ISD transfection unless otherwise indicated). The cGAS ligands ISD45 (Stetson and Medzhitov, 2006) and ISD70 (also known as VACV-70 (Unterholzner et al., 2010)) (Table 1) were resuspended as follows: 5 1d of sense and 5 μl of antisense strands at 10 μg/μl were added to 90 μl PBS under sterile conditions, heated at 75° C. for 30 min, prior to letting cool down at room temperature and aliquoting (stock at 1 μg/1 l). The ISDs were transfected at a concentration of […] at a ratio of 1 μg:1 μl with Lipofectamine 2000 in Opti-MEM (Thermo Fisher Scientific). HEK-TLR3, HEK-TLR7 and […] were treated with indicated concentration of ASOs for 20-50 min, prior to stimulation with poly(I:C) (Invivogen), R848 (Invivogen), Motolimod (MedChemExpress) and the Class B CpG oligonucleotides ODN 2006 (synthesised by IDT and resuspended in RNase-free TE buffer [Table 1]), respectively. The TLR2/1 agonist PAM3CSK4 (Invivogen), the TLR4 agonist lipopolysaccharide (Invivogen), the Class B CpG oligonucleotides ODN 1826 (synthesised by IDT and resuspended in RNase-free TE buffer), the mouse Sting agonist DMXAA (Cayman) and the human STING agonist (compound #3 from (Raanjulu et al., 2018), referred to as GSK herein—kind gift from Cancer Therapeutics CRC, Australia) were used at indicated concentrations. Aspirin (Sigma—A2093) was resuspended in pure medium to 10 mM, filter sterilised and added to the cells at 2 mM final. All ASOs were synthesised by Integrated DNA Technologies (IDT), and resuspended in RNase-free TE buffer, pH 8.0 (Thermo Fisher Scientific). Cell viability was assessed by adding 1× fresh resazurin solution to the wells (10λ solution made up with 7 mg resazurin [Sigma—R7017] dissolved in 3.5 ml PBS, sterile filtered at […]) for 4 h, prior to reading at with a Fluostar OPTIMA (BMG LABTECH) plate-reader (fluorescence: Excitation 535 nm, Emission 590); wells with medium only and 1× resazurin were used as blanks.

Sequence | TLR8 HEK 5 uM
AAU (antisense mA*mA*mU) | 0.807
ACU (antisense mA*mC*mU) | 0.896
AGU (antisense mA*mG*mU) | 1.329
AUA (antisense mA*mU*mA) | 0.812
AUG (mA*mU*mG) | 0.828
AUU (mA*mU*mU) | 0.762
CAU (mC*mA*mU) | 0.752
CCU (mC*mC*mU) | 0.613
CGU (mC*mG*mU) | 1.327
CUA (mC*mU*mA) | 0.642
CUC (mC*mU*mC) | 0.685
CUG (mC*mU*mG) | 1.074
GCU (mG*mC*mU) | 0.810
GGU (mG*mG*mU) | 1.380

Same assay, conditions: ASO 100 nM; relative to R848 only

Sequence | TLR8 100 nM (averaged NF-κB-Luciferase level relative to R848 condition, fold increase)
ACACTTCGTGGGGTCC (antisense; LNA-modified, pattern not given here) [HPRT LNA-665 V1] | 0.422
CAACACTTCGTGGGGT (antisense; LNA-modified, pattern not given here) [HPRT LNA-667 V1] | 0.591
CCAAGATCAGCAGTCT (antisense; LNA-modified, pattern not given here) [CTNN2B-2341 LNA KL] | 1.015
CCATCCATGAGGTCCT (antisense; LNA-modified, pattern not given here) [CTNN2B-2545 LNA V1] | 0.675
GATAGCACCTTCAGCA (antisense; LNA-modified, pattern not given here) [CTNN2B-1294 LNA KL] | 0.821
GCAGGCTCAGTGATGT (antisense; LNA-modified, pattern not given here) [CTNN2B-1642 LNA V1] | 0.638
GCATCCACCACGTCGT (antisense; LNA-modified, pattern not given here) [EGFR-3267 LNA V1] | 0.607
GCCATCCACTTGATAG (antisense; LNA-modified, pattern not given here) [EGFR-2874 LNA V1] | 0.440
GCCATGCTGGCTCGGA (antisense; LNA-modified, pattern not given here) [CAMSAP1-2584 LNA V1] | 0.446
GCCATGTTTCTTCTTG (antisense; LNA-modified, pattern not given here) [MB21D1-1248 LNA KL] | 0.430
GGCTGGAATCCGAGTT (antisense; LNA-modified, pattern not given here) [EGFR-4705 LNA KL] | 0.562
GGTTACGGCTCAGTAT (antisense; LNA-modified, pattern not given here) [CAMSAP1-4295 LNA KL] | 0.804
GTATCGAAAGAGTCTG (antisense; LNA-modified, pattern not given here) [EGFR-3908 LNA KL] | 0.637
GTCCCCTGTTGACTGG (antisense; LNA-modified, pattern not given here) [HPRT LNA-489 KL] | 0.335
GTCTTGGCTTCGTGGA (antisense; LNA-modified, pattern not given here) [MB21D1-522 LNA V1] | 0.678
GTGTCTGGAAGCTTCC (antisense; LNA-modified, pattern not given here) [CTNN2B-809 LNA V1] | 0.923
GTTCAGTCCTGTCCAT (antisense; LNA-modified, pattern not given here) [HPRT LNA-292 V1] | 1.069
TCCAACACTTCGTGGG (antisense; LNA-modified, pattern not given here) [HPRT LNA-669 V1] | 0.413
TCGTAGTTGCTTCCTA (antisense; LNA-modified, pattern not given here) [MB21D1-1181 LNA KL] | 0.557
TGATGGCCTCCCATCT (antisense; LNA-modified, pattern not given here) [HPRT LNA-332 V1] | 0.374

Same assay, conditions: ASO 500 nM; relative to R848 only

Sequence | TLR8 500 nM (averaged NF-κB-Luciferase level relative to R848 condition, fold increase)
ACACTTCGTGGGGTCC (antisense; LNA-modified, pattern not given here) [HPRT LNA-665 V1] | 1.029
CAACACTTCGTGGGGT (antisense; LNA-modified, pattern not given here) [HPRT LNA-667 V1] | 0.690
CCAAGATCAGCAGTCT (antisense; LNA-modified, pattern not given here) [CTNN2B-2341 LNA KL] | 2.920
CCATCCATGAGGTCCT (antisense; LNA-modified, pattern not given here) [CTNN2B-2545 LNA V1] | 1.169
GATAGCACCTTCAGCA (antisense; LNA-modified, pattern not given here) [CTNN2B-1294 LNA KL] | 2.863
GCAGGCTCAGTGATGT (antisense; LNA-modified, pattern not given here) [CTNN2B-1642 LNA V1] | 1.440
GCATCCACCACGTCGT (antisense; LNA-modified, pattern not given here) [EGFR-3267 LNA V1] | 0.738
GCCATCCACTTGATAG (antisense; LNA-modified, pattern not given here) [EGFR-2874 LNA V1] | 0.681
GCCATGCTGGCTCGGA (antisense; LNA-modified, pattern not given here) [CAMSAP1-2584 LNA V1] | 0.363
GCCATGTTTCTTCTTG (antisense; LNA-modified, pattern not given here) [MB21D1-1248 LNA KL] | 0.431
GGCTGGAATCCGAGTT (antisense; LNA-modified, pattern not given here) [EGFR-4705 LNA KL] | 0.577
GGTTACGGCTCAGTAT (antisense; LNA-modified, pattern not given here) [CAMSAP1-4295 LNA KL] | 1.848
GTATCGAAAGAGTCTG (antisense; LNA-modified, pattern not given here) [EGFR-3908 LNA KL] | 1.781
GTCCCCTGTTGACTGG (antisense; LNA-modified, pattern not given here) [HPRT LNA-489 KL] | 0.304
GTCTTGGCTTCGTGGA (antisense; LNA-modified, pattern not given here) [MB21D1-522 LNA V1] | 2.137
GTGTCTGGAAGCTTCC (antisense; LNA-modified, pattern not given here) [CTNN2B-809 LNA V1] | 2.057
GTTCAGTCCTGTCCAT (antisense; LNA-modified, pattern not given here) [HPRT LNA-292 V1] | 4.129
TCCAACACTTCGTGGG (antisense; LNA-modified, pattern not given here) [HPRT LNA-669 V1] | 0.491
TCGTAGTTGCTTCCTA (antisense; LNA-modified, pattern not given here) [MB21D1-1181 LNA KL] | 1.583
TGATGGCCTCCCATCT (antisense; LNA-modified, pattern not given here) [HPRT LNA-332 V1] | 0.263
